Laboratory results published in patent publication US20160339080A1, “METHODS AND PHARMACEUTICAL COMPOSITIONS FOR THE TREATMENT OF HEPATOCELLULAR CARCINOMAS” (INSERM (INSTITUT NATIONAL DE LA SANTÉ ET DE LA RECHERCHE …, priority 2014, published 2016).

Test system: SK-HEP-1 cells
Assay: SK-HEP-1 cell growth (trypan blue-excluding adherent cells counted) and apoptosis
Type: cell-based, human
Conditions: NSC-87877 50 μM with 1 μM orexin-A, 48 h
Protocol: FIG. 1. […] SK-HEP-1 cells were challenged with (black) or without (white) 1 μM orexin-A for 48 h in the absence (wo) or presence of NSC-87877 (50 μM). At the end of the treatment, adherent cells were trypsinized, and cells excluding trypan blue were counted to measure SK-HEP-1 cell growth. Panel B : Effect of orexin-A inoculation on the growth of tumors developed by xenografting human HCC cancer cells SK-HEP-1 in nude mice. SK-HEP-1 cells were inoculated in the flank of nude mice at day 0. Mice were 2 times a week injected intraperitoneally with 100 μL of orexin-A (0,23 μmol/kg) solutions starting at day 0 (white circle) or day 22 (triangle) or with […] of PBS (black circle) for controls.
Orexins are hypothalamic peptides involved in sleep/wake control. We have shown that orexins promote robust apoptosis in colorectal cancer cells (Voisin T, El Firar A, Fasseu M, Rouyer-Fessard C, Descatoire V, Walker F, Paradis V, Bedossa P, Henin D, Lehy T, Laburthe M. (2011) Aberrant expression of OX1 receptors for orexins in colon cancers and liver metastases: an openable gate to apoptosis. Cancer Res. 71:3341-51.). […]

O=S(=O)(O)c1ccc2cc(N=Nc3cc(S(=O)(=O)O)c4cccnc4c3O)ccc2c1 [NSC-87877]
block of orexin-induced SK-HEP-1 growth inhibition: blocks orexin-induced SK-HEP-1 growth inhibitory
reversal of orexin-induced apoptosis: reverse orexin-induced apoptosis
